Legend:
[1] = system: tissue factor mRNA in kidneys of LPS-dosed mice; assay: Assay of tissue factor mRNA using LPS-dosed mouse (kidney); assay type: in vivo; conditions: male C57BL/6J mice, 10 mg/kg oral once a day for 7 days; LPS 4 mg/kg i.p., kidneys 6 hours later; PG/Tween only = 100
Procedure: Test compounds were dissolved in a solution comprising a 4:1 mixture of propylene glycol (Wako Pure Chemical Industries) and Tween 80 (Kao) (hereinafter PG/Tween) followed by oral administration by gavage for 7 days at 10 mg/kg once a day in the evening to male C57BL/6J mice (Charles River). LPS was administered intraperitoneally at 4 mg/kg at 9:00 AM on the day following the 7th day of administration of PG/Tween, after which the animals were laparotomized under ether anesthesia 6 hours later to excise the kidneys. RNA was extracted from the kidneys using Trizol reagent (Invitrogen). After carrying out a reverse transcription reaction on the resulting RNA using the First-Strand cDNA Synthesis Kit, the expressed amounts of tissue factor mRNA and cyclophilin mRNA were measured in the same manner as the aforementioned Test Example 1. The expressed amounts of tissue factor mRNA for the test compounds when administered at a concentration of 10 mg/kg based on a value of 100 for the expressed amount of tissue factor mRNA in a case of administration of PG/Tween only are shown in Table 8.

[2] = system: tissue factor mRNA in LPS-stimulated mouse peritoneal macrophages; assay: Assay of mouse peritoneal macrophage tissue factor mRNA; assay type: cell-based; conditions: 18 h, then LPS 100 ng/ml for 6 h, relative to cyclophilin mRNA, DMSO treatment = 100, read-out: Expressed Amount of Tissue Factor mRNA; for mrna remaining at 1 µM: test compound 1 μM; for mrna remaining at 10 µM: test compound 10 μM
Procedure: 3 ml of thioglycolate (Sigma Chemical) were administered into the abdominal cavity of male C57BL/6J mice (Charles River) followed 4 days later by intraperitoneal administration of 10 ml of phosphate-buffered saline (hereinafter PBS) containing heparin (Hishiyama Pharmaceutical) at a concentration of 5 U/ml and recovery of intraperitoneal macrophages using a syringe. After centrifuging the recovered macrophages at 1000 rpm and 4° C. for 5 minutes, the supernatant was discarded followed by suspending in RPMI 1640 medium (Gibco Laboratories) containing normal fetal bovine serum (hereinafter FBS) at a concentration of 10%. The macrophages were adjusted to a concentration of 4×10^6 cells/ml, disseminated in 1 ml aliquots in a 12-well plate, and cultured for 3 hours at 37° C. using a CO2 incubator. Subsequently, the cells were washed with PBS, and the medium was replaced with RPMI medium containing lipoprotein-deficient serum (hereinafter LPDS) (Sigma Chemical) at a concentration of 5%. Test compounds dissolved in dimethylsulfoxide (DMSO) at a concentration of 1 μM were added to make a final DMSO concentration of 0.1%, and after warming for 18 hours at 37° C., lipopolysaccharide (hereinafter LPS) (Sigma Chemical) was added to make a concentration of 100 ng/ml. The cells were recovered 6 hours later, RNA was extracted using the Rneasy Mini Kit (Qiagen), and after carrying out a reverse transcription reaction using the First-Strand cDNA Synthesis Kit (Amersham Biosciences), the expressed amounts of tissue factor mRNA and cyclophylin mRNA were measured by quantitative RT-PCR (TaqMan, Applied Biosystems 7700 Sequence Detector).
Quantitative RT-PCR for tissue factor was carried out using the aforementioned TF-1 and TF-2 as primers and TF-P as probes, while quantitative PCR for cyclophilin was carried out using the aforementioned Cyl-1 and Cyl-2 as primers and Cyl-P as probes. Both were carried out by warming for 2 minutes at 50° C. and then for 10 minutes at 95° C., followed by 40 warming cycles consisting of warming for 15 seconds at 95° C. and then for 1 minute at 60° C. The expressed amount of tissue factor mRNA was calculated as a relative value of the expressed amount of cyclophilin mRNA. The expressed amounts of tissue factor mRNA resulting from the test compounds at a concentration of 1 μM or 10 μM based on a value of 100 for the expressed amount of tissue factor mRNA in a case of treatment with DMSO at a concentration of […] are shown in Table 7.

Question: For `O=C(O)Cc1cccc(OCCCN(Cc2cccc(C(F)(F)F)c2Cl)CC(c2ccccc2)c2ccccc2)c1` [Compound C, 2-(3-{3-[[2-Chloro-3-(trifluoromethyl)benzyl](2,2-diphenylethyl)amino]propoxy}-phenyl)acetic acid, reference compound], which “Expressed Amount of Tissue Factor mRNA” value [1] is on record?
Answer: 54.1

Question: And the mrna remaining at 1 µM [2]?
Answer: 68.8%

Question: Which “Expressed Amount of Tissue Factor mRNA” value [1] does the source give for `COc1cc2nc(Cc3ccccc3)n(-c3ccc(C(O)(C(F)(F)F)C(F)(F)F)cc3)c(=O)c2cc1OC` [Compound D, 2-Benzyl-6,7-dimethoxy-3-[4-[2,2,2-trifluoro-1-hydroxy-1-(trifluoromethyl)ethyl]phenyl]-4(3H)-quinazolinone] here?
Answer: 63.5

Question: And the mrna remaining at 1 µM [2]?
Answer: 39%

Question: Which mrna remaining at 10 µM [2] does the source give for `CC(C)(C)OC(=O)c1c(COc2ccc(-c3ccc(C(CO)C(=O)O)cc3)cc2)ccc(C(F)(F)F)c1O` (stereo not shown) [Reference Example 32, 2-(4′-{[2-(tert-Butoxycarbonyl)-3-hydroxy-4-(trifluoromethyl)benzyl]oxy}-1,1′-biphenyl-4-yl)-3-hydroxypropanoic acid] here?
Answer: 48.5%

Question: How did the mrna remaining at 10 µM [2] turn out when `CC(C)c1cc(CC(=O)O)ccc1-c1ccc(OCc2ccc(C(F)(F)F)c(O)c2C(=O)OC(C)(C)C)cc1` [Reference Example 33, (4′-{[2-(tert-Butoxycarbonyl)-3-hydroxy-4-(trifluoromethyl)benzyl]oxy}-2-isopropyl-1,1′-biphenyl-4-yl)acetic acid] was run?
Answer: 37.2%

Question: Which mrna remaining at 10 µM [2] does the source give for `CC(C)(C)OC(=O)c1c(COc2ccc(-c3ccc(C(=O)O)cc3)cc2)ccc(C(F)(F)F)c1O` [Reference Example 34, 4′-{[2-(tert-Butoxycarbonyl)-3-hydroxy-4-(trifluoromethyl)benzyl]oxy}-1,1′-biphenyl-4-carboxylic acid] here?
Answer: 39%

Source: patent publication US20080255111A1, “Tissue Factor Production Inhibitor” (SANKYO COMPANY LIMITED, priority 2004, published 2008)
